The source of these data is patent US20230159496A1, “COMPOUNDS AND METHODS FOR MODULATING SPLICING” (REMIX THERAPEUTICS INC., priority 2020, published 2023).

Format in all cases: cell-based
The test system of one experiment is HTT mRNA. As to the kind of experiment: Splicing assay (RT-qPCR) monitoring HTT canonical junction (CJ) and alternative junction (AJ) mRNA isoforms. The note with it: A673 or K562 cells, 24 h treatment, top dose 10 uM. Summed up:
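A673 or K562 cells treated 24 h at 37 °C with an 11-point 3-fold dilution (top 10 uM final, DMSO ≤0.25%). Lysates assayed by one-step RT-qPCR for HTT CJ and AJ isoforms, normalized to GAPDH, GUSB (K562) or PPIA (A673).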
(In general: In qPCR the cycle at which signal appears reflects the starting amount.)

The next experiment relates to HTT CJ mRNA. As to the kind of experiment: Gene panel canonical junction qPCR assay, HTT. The note with it: decrease in CJ mRNA levels, gene panel; read-out: HTT IC50. In outline: (§1)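 A673 or K562 cells were treated for 24 h at 37 °C with an 11-point 3-fold dilution, top dose 10 uM, DMSO ≤0.25%. Canonical junction mRNA in lysates was quantified by one-step RT-qPCR and normalized to GAPDH, GUSB or PPIA.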

In the next experiment the test system is SMN2 CJ mRNA. Kind of experiment: Gene panel canonical junction qPCR assay, SMN2. The note with it: decrease in CJ mRNA levels, gene panel; read-out: SMN2 IC50. Summed up: as §1
In another experiment the test system is Target C CJ mRNA. As to the kind of experiment: Gene panel canonical junction qPCR assay, Target C. Particulars: decrease in CJ mRNA levels, gene panel; read-out: Target C IC50. Summed up:
as §1

[1] abbreviates: decrease in CJ mRNA (50% response), read-out: HTT CJ AC50.
[2] abbreviates: increase in AJ mRNA (50% response), read-out: HTT AJ AC50.

Structures are written as SMILES. Like-named read-outs stand apart in the source and are kept apart here.

For orientation: AC50 means the concentration giving half of the maximal activity seen. Broadly, the IC50 is the concentration that inhibits the measured activity by half.

With `Cc1cn2cc(-c3ccc4nc(NC5CCNCC5)[nH]c(=O)c4c3)cc(F)c2n1` [Compound 238], the AC50 in the experiment with HTT mRNA (setting [1]) and with HTT mRNA (setting [2]) was greater than 10000 nM in each case. The IC50 in the experiment with HTT CJ mRNA, in the experiment with SMN2 CJ mRNA and with Target C CJ mRNA was greater than 10000 nM in each case.

With `CN1CCN(c2ccc3nc(-c4ccc5nn(C)cc5c4)[nH]c(=O)c3c2)CC1` [Compound 108, 2-(2-methyl-2H-indazol-5-yl)-6-(4-methylpiperazin-1-yl)quinazolin-4(3H)-one], the AC50 in the experiment on HTT mRNA (setting [1]) and in the experiment on HTT mRNA (setting [2]) was greater than 10000 nM in each case. The results for the IC50 in the experiment on HTT CJ mRNA, in the experiment with SMN2 CJ mRNA and with Target C CJ mRNA were greater than 10000 nM, 1000 to 10000 nM and 1000 to 10000 nM, respectively.

On to `Cc1cn2cc(-c3ccc4c(=O)n(C5CCN(C)CC5)cnc4c3)ncc2n1` [Compound 308], for which the AC50 in the experiment with HTT mRNA (setting [1]) and in the experiment on HTT mRNA (setting [2]) was 1000 to 10000 nM throughout. Besides, the IC50 with HTT CJ mRNA was 1000 to 10000 nM; with SMN2 CJ mRNA it was 100 to 1000 nM; in the experiment on Target C CJ mRNA it was 1000 to 10000 nM.

As to `Cc1nc2c(F)cc(-c3ccc4c(=O)n(C5CCNCC5)ncc4c3)cc2s1` [Compound 253], the AC50 with HTT mRNA (setting [1]) and in the experiment with HTT mRNA (setting [2]) was 1000 to 10000 nM in each case. For the same compound, the IC50 in the experiment with HTT CJ mRNA lay within 1000 to 10000 nM; with SMN2 CJ mRNA, 100 to 1000 nM; with Target C CJ mRNA, 1000 to 10000 nM.

Turning to `Cc1cn2cc(-c3ccc4c(=O)n(C5CCN(C)CC5)cnc4c3)c(C)cc2n1` [Compound 246], the AC50 in the experiment on HTT mRNA (setting [1]) and in the experiment on HTT mRNA (setting [2]) was 1000 to 10000 nM throughout. Besides, the IC50 in the experiment with HTT CJ mRNA, in the experiment with SMN2 CJ mRNA and with Target C CJ mRNA was 1000 to 10000 nM each time.

As to `Cc1cn2nc(-c3ccc4c(=O)n([C@@H]5CCN(C)[C@H](C)C5)ncc4c3)cc(C)c2n1` [Compound 277], the concentration at half-maximal activity (AC50) in the experiment on HTT mRNA (setting [1]) and in the experiment on HTT mRNA (setting [2]) was 100 to 1000 nM throughout. In addition, the IC50 with HTT CJ mRNA was 100 to 1000 nM; in the experiment with SMN2 CJ mRNA, less than 100 nM; in the experiment with Target C CJ mRNA, 1000 to 10000 nM.

Take `Cc1cn2nc(-c3ccc4c(c3)CCN(C3CCNC3)C4=O)cc(C)c2n1` (stereo not drawn) [Compound 269, 6-{2,8-dimethylimidazo[1,2-b]pyridazin-6-yl}-2-(pyrrolidin-3-yl)-3,4-dihydroisoquinolin-1-one]: the AC50 in the experiment with HTT mRNA (setting [1]) and with HTT mRNA (setting [2]) was greater than 10000 nM throughout. Also, the IC50 in the experiment on HTT CJ mRNA was greater than 10000 nM; in the experiment with SMN2 CJ mRNA it was 1000 to 10000 nM; in the experiment on Target C CJ mRNA, greater than 10000 nM.

On to `CN1CCC(c2ccc3c(=O)n(-c4ccc5nn(C)cc5c4)cnc3c2)CC1` [Compound 177, 3-(2-methyl-2H-indazol-5-yl)-7-(1-methylpiperidin-4-yl)quinazolin-4(3H)-one], for which the concentration at half-maximal activity (AC50) in the experiment on HTT mRNA (setting [1]) and with HTT mRNA (setting [2]) was greater than 10000 nM each time. Also, the IC50 in the experiment with HTT CJ mRNA was greater than 10000 nM; with SMN2 CJ mRNA it was greater than 10000 nM; in the experiment with Target C CJ mRNA it was 1000 to 10000 nM.

Turning to `Cc1cn2nc(-c3ccc4c(=O)n(C5CCNC(C)(C)C5)ncc4c3)cc(C)c2n1` (stereo not drawn) [Compound 279], the AC50 with HTT mRNA (setting [1]) and in the experiment with HTT mRNA (setting [2]) was 100 to 1000 nM in each case. Further, the IC50 in the experiment with HTT CJ mRNA was 100 to 1000 nM; with SMN2 CJ mRNA, less than 100 nM; with Target C CJ mRNA, 100 to 1000 nM.

Consider `Cc1nc2c(F)cc(-c3ccc4c(=O)n(C5CCNCC5)ncc4c3)cc2o1` [Compound 250], for which the AC50 in the experiment with HTT mRNA (setting [1]) and in the experiment on HTT mRNA (setting [2]) was less than 100 nM each time. The IC50 with HTT CJ mRNA is less than 100 nM; in the experiment with SMN2 CJ mRNA, less than 100 nM; in the experiment on Target C CJ mRNA, 100 to 1000 nM.

Take `Cc1cn2cc(-c3ccc4c(=O)n(C5CCNC(C)(C)C5)cnc4c3)cc(F)c2n1` (stereo not drawn) [Compound 237, 3-(2,2-dimethylpiperidin-4-yl)-7-(8-fluoro-2-methylimidazo[1,2-a]pyridin-6-yl)quinazolin-4(3H)-one]: the AC50 with HTT mRNA (setting [1]) and in the experiment on HTT mRNA (setting [2]) was 100 to 1000 nM throughout. For the same compound, the IC50 in the experiment with HTT CJ mRNA is 100 to 1000 nM; with SMN2 CJ mRNA it was less than 100 nM; in the experiment on Target C CJ mRNA, 1000 to 10000 nM.

Turning to `Cc1cn2cc(-c3ccc4c(c3)CCN(C3CCNCC3)C4=O)ncc2n1` [Compound 224], the half-maximal activity concentration (AC50) in the experiment with HTT mRNA (setting [1]) and with HTT mRNA (setting [2]) was greater than 10000 nM throughout. Further, the IC50 was greater than 10000 nM in the experiment with HTT CJ mRNA, 100 to 1000 nM with SMN2 CJ mRNA and greater than 10000 nM in the experiment with Target C CJ mRNA.

With `Cc1cn2cc(-c3ccc4c(=O)n(C5CCNCC5)ncc4c3)cc(C(F)(F)F)c2n1` [Compound 262], the AC50 in the experiment on HTT mRNA (setting [1]) and in the experiment on HTT mRNA (setting [2]) was 1000 to 10000 nM throughout. The figures for the IC50 in the experiment on HTT CJ mRNA, with SMN2 CJ mRNA and in the experiment on Target C CJ mRNA were 1000 to 10000 nM, less than 100 nM and 1000 to 10000 nM, respectively.

On to `Cc1cn2cc(-c3ccc4c(=O)n(C5CCNCC5)cnc4c3)nc2c(C)n1` [Compound 286], for which the AC50 in the experiment on HTT mRNA (setting [1]) and in the experiment on HTT mRNA (setting [2]) was 1000 to 10000 nM each time. The IC50 was 1000 to 10000 nM in the experiment on HTT CJ mRNA, 100 to 1000 nM with SMN2 CJ mRNA and 1000 to 10000 nM with Target C CJ mRNA.

Take `Cc1cn2nc(-c3ccc4c(=O)n(C5CCN(C)CC5)cnc4c3F)cc(C)c2n1` [Compound 290, 7-(2,8-dimethylimidazo[1,2-b]pyridazin-6-yl)-8-fluoro-3-(1-methylpiperidin-4-yl)quinazolin-4(3H)-one]: the AC50 in the experiment with HTT mRNA (setting [1]) and with HTT mRNA (setting [2]) was 100 to 1000 nM throughout. For the same compound, the IC50 with HTT CJ mRNA, in the experiment with SMN2 CJ mRNA and in the experiment on Target C CJ mRNA was 100 to 1000 nM each time.

For `O=c1c2ccc(-c3cn[nH]c3)cc2ncn1C1CCNCC1` [Compound 284], the AC50 in the experiment with HTT mRNA (setting [1]) and in the experiment on HTT mRNA (setting [2]) was greater than 10000 nM in each case. The figures for the IC50 with HTT CJ mRNA, with SMN2 CJ mRNA and in the experiment on Target C CJ mRNA were greater than 10000 nM, 1000 to 10000 nM and greater than 10000 nM, respectively.

For `Cc1cn2nc(-c3ccc4nc(N5CCNC6(CC6)C5)[nH]c(=O)c4c3)cc(C)c2n1` [Compound 190], the AC50 in the experiment on HTT mRNA (setting [1]) and in the experiment on HTT mRNA (setting [2]) was 100 to 1000 nM in each case. Also, the IC50 in the experiment with HTT CJ mRNA, with SMN2 CJ mRNA and with Target C CJ mRNA was 100 to 1000 nM throughout.

Regarding `Cc1cn2nc(-c3ccc4c(c3)CCN(C3CCN(C)C3)C4=O)cc(C)c2n1` (stereo not drawn) [Compound 282, 6-{2,8-dimethylimidazo[1,2-b]pyridazin-6-yl}-2-(1-methylpyrrolidin-3-yl)-3,4-dihydroisoquinolin-1-one], the AC50 in the experiment on HTT mRNA (setting [1]) and with HTT mRNA (setting [2]) was greater than 10000 nM each time. Also, the IC50 with HTT CJ mRNA is greater than 10000 nM; in the experiment on SMN2 CJ mRNA, 1000 to 10000 nM; in the experiment with Target C CJ mRNA it was greater than 10000 nM.
